These results are taken from US20090311217A1, “3-SUBSTITUTED-1H-INDOLE COMPOUNDS, THEIR USE AS MTOR KINASE AND PI3 KINASE INHIBITORS, AND THEIR SYNTHESES” (priority 2008, published 2009).

Like-named read-outs stand apart in the source and are kept apart here. Bounds are passed on as bounds.

One data set addresses PI3K-gamma (Homo sapiens, UniProt P48736). Nature of the data set: PI3K-gamma fluorescence polarization assay. In kind it is biochemical. The following applies: PI3Kγ Avg. IC50. The procedure, abridged:
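Each isoform (5 ng) phosphorylated 2.5 μM diC8-PI(4,5)P2 at 25 μM ATP for one hour at 25° C in the presence of inhibitor. Reactions were then stopped with EDTA, and product was detected by fluorescence polarization using a GST-GRP1 PH domain and a BODIPY-TMR-labelled IP4 tracer.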
For orientation: In fluorescence polarisation assays a small probe gives low polarisation when free and higher when bound to something large.

In another data set the target is T1, human TOR (Homo sapiens, UniProt P42345).
T1 construct: FLAG
Description: mTOR enzyme assay (DELFIA, His6-S6K substrate). The data set is classed as biochemical. Particulars: read-out: mTOR Kinase Avg. IC50.

The target in another data set is PI3K-alpha (Homo sapiens, UniProt P42336). Nature of the data set: PI3K-alpha fluorescence polarization assay. In kind it is biochemical. The following applies: read-out: PI3Kα Avg. IC50.
Data set [1] has as its system human tumor xenograft models. The following applies: cited from earlier work.
The subject of data set [2] is acute lymphoblastic leukemia. The following applies: in vivo; cited from earlier work.
Another data set deals with mTOR (Homo sapiens, UniProt P42345). Particulars: mTOR enzymes; cited from earlier work.

PI3K-gamma, sequence (P48736 whole entry, species assumed, the tested form may be a part, canonical isoform): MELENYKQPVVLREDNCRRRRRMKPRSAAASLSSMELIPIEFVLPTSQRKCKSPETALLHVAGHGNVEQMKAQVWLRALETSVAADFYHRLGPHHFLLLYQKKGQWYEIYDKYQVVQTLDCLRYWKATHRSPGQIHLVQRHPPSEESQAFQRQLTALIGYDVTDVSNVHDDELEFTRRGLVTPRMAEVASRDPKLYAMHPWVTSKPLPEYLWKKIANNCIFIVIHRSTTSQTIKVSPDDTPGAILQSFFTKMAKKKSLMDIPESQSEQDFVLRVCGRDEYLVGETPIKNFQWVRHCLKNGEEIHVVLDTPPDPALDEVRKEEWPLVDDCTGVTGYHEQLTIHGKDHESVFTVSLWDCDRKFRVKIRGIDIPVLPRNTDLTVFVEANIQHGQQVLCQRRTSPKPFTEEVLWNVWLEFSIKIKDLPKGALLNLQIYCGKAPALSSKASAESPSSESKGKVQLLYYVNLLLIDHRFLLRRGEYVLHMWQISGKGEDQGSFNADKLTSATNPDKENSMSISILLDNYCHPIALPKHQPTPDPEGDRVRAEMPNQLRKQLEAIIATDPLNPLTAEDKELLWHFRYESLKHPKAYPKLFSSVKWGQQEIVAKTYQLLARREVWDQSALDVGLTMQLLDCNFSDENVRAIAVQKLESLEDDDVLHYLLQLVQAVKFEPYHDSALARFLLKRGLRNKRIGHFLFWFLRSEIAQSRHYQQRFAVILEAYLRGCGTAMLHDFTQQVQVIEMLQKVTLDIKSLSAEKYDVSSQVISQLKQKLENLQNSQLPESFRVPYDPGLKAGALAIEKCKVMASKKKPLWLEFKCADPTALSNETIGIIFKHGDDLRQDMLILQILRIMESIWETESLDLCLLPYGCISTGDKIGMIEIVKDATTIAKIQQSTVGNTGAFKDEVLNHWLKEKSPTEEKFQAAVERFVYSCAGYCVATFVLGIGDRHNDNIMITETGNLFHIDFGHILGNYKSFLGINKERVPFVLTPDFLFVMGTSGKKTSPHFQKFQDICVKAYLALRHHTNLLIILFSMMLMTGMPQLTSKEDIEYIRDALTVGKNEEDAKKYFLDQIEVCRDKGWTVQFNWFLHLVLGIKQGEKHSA
PI3K-alpha, sequence (P42336 whole entry, species assumed): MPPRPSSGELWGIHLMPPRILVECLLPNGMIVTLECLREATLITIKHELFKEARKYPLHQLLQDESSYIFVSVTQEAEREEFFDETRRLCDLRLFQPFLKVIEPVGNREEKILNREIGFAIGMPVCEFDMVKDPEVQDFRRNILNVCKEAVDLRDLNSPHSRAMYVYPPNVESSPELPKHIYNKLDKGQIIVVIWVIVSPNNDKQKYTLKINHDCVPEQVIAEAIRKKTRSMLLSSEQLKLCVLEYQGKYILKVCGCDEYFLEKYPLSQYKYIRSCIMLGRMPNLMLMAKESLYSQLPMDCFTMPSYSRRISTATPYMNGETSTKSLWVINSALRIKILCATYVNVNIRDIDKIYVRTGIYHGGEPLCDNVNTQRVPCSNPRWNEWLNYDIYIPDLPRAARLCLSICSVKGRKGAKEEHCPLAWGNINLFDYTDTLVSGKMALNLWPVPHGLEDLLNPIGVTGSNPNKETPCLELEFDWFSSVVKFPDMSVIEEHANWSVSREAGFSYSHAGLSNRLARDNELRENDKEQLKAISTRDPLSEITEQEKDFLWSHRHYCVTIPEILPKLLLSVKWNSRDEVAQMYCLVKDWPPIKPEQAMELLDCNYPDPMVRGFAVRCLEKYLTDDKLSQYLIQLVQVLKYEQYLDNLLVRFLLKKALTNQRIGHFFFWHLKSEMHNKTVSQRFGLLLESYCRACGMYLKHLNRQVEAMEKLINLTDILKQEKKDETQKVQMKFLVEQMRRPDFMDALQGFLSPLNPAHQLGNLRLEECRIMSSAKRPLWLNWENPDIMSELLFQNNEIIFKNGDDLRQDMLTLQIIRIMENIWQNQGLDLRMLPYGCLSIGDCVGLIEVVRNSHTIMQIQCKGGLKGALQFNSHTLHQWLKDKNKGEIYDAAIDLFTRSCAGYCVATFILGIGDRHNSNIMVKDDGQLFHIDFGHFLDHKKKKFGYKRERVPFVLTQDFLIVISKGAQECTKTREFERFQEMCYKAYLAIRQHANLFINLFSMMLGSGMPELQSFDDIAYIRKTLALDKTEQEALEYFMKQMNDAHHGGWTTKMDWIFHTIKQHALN
PI3K-alpha, sequence (P27986 whole entry partner, species assumed): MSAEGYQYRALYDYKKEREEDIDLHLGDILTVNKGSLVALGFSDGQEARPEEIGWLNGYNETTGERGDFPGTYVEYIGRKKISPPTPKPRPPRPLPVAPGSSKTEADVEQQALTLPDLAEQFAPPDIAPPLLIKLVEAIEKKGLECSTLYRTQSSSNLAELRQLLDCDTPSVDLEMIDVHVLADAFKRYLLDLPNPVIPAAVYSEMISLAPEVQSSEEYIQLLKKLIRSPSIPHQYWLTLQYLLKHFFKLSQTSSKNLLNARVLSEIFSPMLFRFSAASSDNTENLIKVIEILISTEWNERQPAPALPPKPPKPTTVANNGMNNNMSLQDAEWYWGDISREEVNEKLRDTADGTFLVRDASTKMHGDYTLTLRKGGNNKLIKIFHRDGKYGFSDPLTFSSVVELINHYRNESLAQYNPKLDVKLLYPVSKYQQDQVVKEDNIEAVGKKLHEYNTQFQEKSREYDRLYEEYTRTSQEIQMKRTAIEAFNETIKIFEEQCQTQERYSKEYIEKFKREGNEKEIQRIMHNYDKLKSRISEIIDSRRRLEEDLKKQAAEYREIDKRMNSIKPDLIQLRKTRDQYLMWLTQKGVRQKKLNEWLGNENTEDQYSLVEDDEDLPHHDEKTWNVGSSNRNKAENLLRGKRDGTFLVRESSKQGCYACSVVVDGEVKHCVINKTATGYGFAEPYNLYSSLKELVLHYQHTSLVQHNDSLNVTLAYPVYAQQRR

Usually IC50 stands for the concentration needed to halve the response being measured. In general, melting point refers to the temperature, or range, at which the solid turns liquid. On to `COc1cc(OC)c2c(c1)O/C(=C\c1c(-c3ccccc3)n(C)c3ccccc13)C2=O` [Example 409, (2Z)-4,6-dimethoxy-2-[(1-methyl-2-phenyl-1H-indol-3-yl)methylene]benzofuran-3(2H)-one], for which the melting point lay in the range of 257 to 258 °C. This compound registered an IC50 against PI3K-gamma of 1.99 µM. On human TOR, the IC50 is more than 20 µM. For the same compound, the IC50 at PI3K-alpha is more than 10 µM.

Turning to `COc1cc(O)c2c(c1)O/C(=C\c1c(-c3ccccc3)n(C)c3ccccc13)C2=O` [Example 421, (2Z)-4-hydroxy-6-methoxy-2-[(1-methyl-2-phenyl-1H-indol-3-yl)methylene]benzofuran-3(2H)-one], the melting point was 221 to 223 °C. The compound further had an IC50 against PI3K-gamma of more than 10 µM. The IC50 on human TOR is more than 20 µM. Further, the IC50 at PI3K-alpha was more than 10 µM.

Consider `Cn1c(=O)n(-c2ccc(C(C)(C)C#N)cc2)c2c3cc(-c4cnc5ccccc5c4)ccc3ncc21` [NVP-BEZ-235, 2-methyl-2-(4-(3-methyl-2-oxo-8-(quinolin-3-yl)-2,3-dihydro-1H-imidazo[4,5-c]quinolin-1-yl)phenyl)propanenitrile], for which the “activity in human tumor xenograft models” value in data set [1] (prostrate (PC-3) and glioblastoma (U-87)) is “demonstrated activity”.

Turning to `Oc1cccc(-c2nc(N3CCOCC3)c3oc4ncccc4c3n2)c1` [PI103, 3-(4-(4-morpholinyl)pyrido[3′,2′:4,5]furo[3,2-d]pyrimidin-2-yl)phenol], the “activity in human tumor xenograft models” value in data set [1] (I.P. dosing in mice, U87MG, PC3, MDA-MB-468, MDA-MB-435, HCT 116, SKOV3, IGROV-1) is “demonstrated activity”.

As to `CO[C@H]1C[C@@H]2CC[C@@H](C)[C@@](O)(O2)C(=O)C(=O)N2CCCC[C@H]2C(=O)O[C@H]([C@H](C)C[C@@H]2CC[C@@H](OC(=O)C(C)(CO)CO)[C@H](OC)C2)CC(=O)[C@H](C)/C=C(\C)[C@@H](O)[C@@H](OC)C(=O)[C@H](C)C[C@H](C)/C=C/C=C/C=C/1C` [Torisel], the “activity in NOS/SCID xenograft mouse model of acute lymphoblastic leukemia” value in data set [2] is reported as “active”.

Turning to `FC(F)c1nc2ccccc2n1-c1nc(N2CCOCC2)nc(N2CCOCC2)n1` [ZSTK474, 2-(2-difluoromethylbenzoimidazol-1-yl)-4,6-dimorpholino-1,3,5-triazine], in data set [1] (chronic oral administration, 400 mg/kg, A549, PC-3, WiDr), the “tumor growth in mouse human xenograft cancer models” value was “completely inhibited growth”. Moreover, the half-inhibitory concentration (IC50) at mTOR was more than 10 µM.
